Results reported in PubChem BioAssay AID1259411 (Chemical Carcinogenesis Research Information System (CCRIS), 2018).
Active and inactive are the calls of the source. The rule behind the calls is not given here.

Test system: rodent carcinogenicity bioassays, tumor incidence
Assay: CCRIS carcinogenicity studies
Method in brief: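 Archive of carcinogenicity, mutagenicity, tumor promotion and tumor inhibition results drawn from journals, NCI reports and other sources, expert-reviewed; covers 1985-2011 and is no longer updated.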

With `COC(N)=O` the carcinogen call (Species: MOUSE, Strain/Sex: B6C3F1/FEMALE, Route: GAVAGE, Dose: 0, 500, 1000 MG/KG IN DISTILLED WATER 5D/WK FOR 103 WK (STUDY DURATION: 105 WK), 1000 MG/KG IN DISTILLED WATER 5D/WK FOR, Dose: 0, 500, 1000 MG/KG IN DISTILLED WATER 5D/WK FOR 103 WK (STUDY DURATION: 105 WK), 1000 MG/KG IN DISTILLED WATER 5D/WK FOR) was “inactive; negative”, the carcinogen call (Species: MOUSE, Strain/Sex: B6C3F1/MALE, Route: GAVAGE, Dose: 0, 500, 1000 MG/KG IN DISTILLED WATER 5D/WK FOR 103 WK (STUDY DURATION: 105 WK);1000 MG/KG IN DISTILLED WATER 5D/WK FOR, Dose: 0, 500, 1000 MG/KG IN DISTILLED WATER 5D/WK FOR 103 WK (STUDY DURATION: 105 WK);1000 MG/KG IN DISTILLED WATER 5D/WK FOR) was “inactive; negative” and the carcinogen call (Species: RAT, Strain/Sex: F344/FEMALE, Route: GAVAGE, Dose: 0, 100, 200 MG/KG IN DISTILLED WATER 5D/WK FOR 103 WK (STUDY DURATION: 105 WK), 400 MG/KG IN DISTILLED WATER 5D/WK FOR 6, Dose: 0, 100, 200 MG/KG IN DISTILLED WATER 5D/WK FOR 103 WK (STUDY DURATION: 105 WK), 400 MG/KG IN DISTILLED WATER 5D/WK FOR 6, Tumor Site: Type of Lesion: LIVER: NEOPLASTIC NODULE, LIVER: NEOPLASTIC NODULE OR HEPATOCELLULAR CARCINOMA, LIVER: HEPATOCELLULAR CARCINOMA, Tumor Site: Type of Lesion: LIVER: NEOPLASTIC NODULE, LIVER: NEOPLASTIC NODULE OR HEPATOCELLULAR CARCINOMA, LIVER: HEPATOCELLULAR CARCINOMA) was “active; positive”. For the same molecule, the carcinogen call (Species: RAT, Strain/Sex: F344/MALE, Route: GAVAGE, Dose: 0, 100, 200 MG/KG IN DISTILLED WATER 5D/WK FOR 103 WK (STUDY DURATION: 105 WK), 400 MG/KG IN DISTILLED WATER 5D/WK FOR 6, Dose: 0, 100, 200 MG/KG IN DISTILLED WATER 5D/WK FOR 103 WK (STUDY DURATION: 105 WK), 400 MG/KG IN DISTILLED WATER 5D/WK FOR 6, Tumor Site: Type of Lesion: LIVER: NEOPLASTIC NODULES, LIVER: HEPATOCELLULAR CARCINOMA) was “active; positive”.
With `Nc1ccc([N+](=O)[O-])cc1O` the carcinogen call (Species: MOUSE, Strain/Sex: B6C3F1/FEMALE, Route: GAVAGE, Dose: 0, 400, 800 MG/KG IN CORN OIL 5D/WK FOR 103 WK (STUDY DURATION: 105 WK), Dose: 0, 400, 800 MG/KG IN CORN OIL 5D/WK FOR 103 WK (STUDY DURATION: 105 WK)) was “inactive; negative”, the carcinogen call (Species: MOUSE, Strain/Sex: B6C3F1/MALE, Route: GAVAGE, Dose: 0, 400, 800 MG/KG IN CORN OIL 5D/WK FOR 103 WK (STUDY DURATION: 105 WK), Dose: 0, 400, 800 MG/KG IN CORN OIL 5D/WK FOR 103 WK (STUDY DURATION: 105 WK)) was “inactive; negative” and the carcinogen call (Species: RAT, Strain/Sex: F344/FEMALE, Route: GAVAGE, Dose: 0, 100, 200 MG/KG IN CORN OIL 5D/WK FOR 103 WK (STUDY DURATION: 105 WK), Dose: 0, 100, 200 MG/KG IN CORN OIL 5D/WK FOR 103 WK (STUDY DURATION: 105 WK)) was “inactive; negative”. For the same molecule, the carcinogen call (Species: RAT, Strain/Sex: F344/MALE, Route: GAVAGE, Dose: 0, 100, 200 MG/KG IN CORN OIL 5D/WK FOR 103 WK (STUDY DURATION: 105 WK), Dose: 0, 100, 200 MG/KG IN CORN OIL 5D/WK FOR 103 WK (STUDY DURATION: 105 WK), Tumor Site: Type of Lesion: PANCREAS: ACINAR CELL ADENOMA, PANCREAS: ACINAR CELL ADENOMA OR CARCINOMA) was “active; positive”.
For `Cn1c(CCCC(=O)O)nc2cc(N(CCCl)CCCl)ccc21`, the carcinogen call (Species: MOUSE, Strain/Sex: AB/JENA/FEMALE, Route: INTRAPERITONEAL, Dose: 0, 12.5, 25 MG/KG IN 2 ML SALINE 1/D FOR 4 D FOR A TOTAL DOSE OF 0, 50, 100 MG/KG, Dose: 0, 12.5, 25 MG/KG IN 2 ML SALINE 1/D FOR 4 D FOR A TOTAL DOSE OF 0, 50, 100 MG/KG, Tumor Site: Type of Lesion: PERITONEUM: SARCOMA) was “active; positive” and the carcinogen call (Species: MOUSE, Strain/Sex: AB/JENA/FEMALE, Route: ORAL, Dose: 0, 62.5 MG/KG IN 0.25 ML WATER 1/D FOR 4 D FOR A TOTAL DOSE OF 0, 250 MG/KG, Dose: 0, 62.5 MG/KG IN 0.25 ML WATER 1/D FOR 4 D FOR A TOTAL DOSE OF 0, 250 MG/KG, Tumor Site: Type of Lesion: LUNG: ADENOMA) was “active; positive”.
For `C=C(F)F`, the carcinogen call (Species: RAT, Strain/Sex: SPRAGUE-DAWLEY/FEMALE, Route: GAVAGE, Dose: 0, 4.12, 8.25 MG/KG BW IN OLIVE OIL 1/D 4-5 D/WK FOR 52 WK (STUDY DURATION: LIFETIME), Dose: 0, 4.12, 8.25 MG/KG BW IN OLIVE OIL 1/D 4-5 D/WK FOR 52 WK (STUDY DURATION: LIFETIME), Tumor Site: Type of Lesion: [BRAIN WAS ONLY SITE EVALUATED]) was “inactive; negative” and the carcinogen call (Species: RAT, Strain/Sex: SPRAGUE-DAWLEY/MALE, Route: GAVAGE, Dose: 0, 4.12, 8.25 MG/KG BW IN OLIVE OIL 1/D 4-5 D/WK FOR 52 WK (STUDY DURATION: LIFETIME), Dose: 0, 4.12, 8.25 MG/KG BW IN OLIVE OIL 1/D 4-5 D/WK FOR 52 WK (STUDY DURATION: LIFETIME), Tumor Site: Type of Lesion: [BRAIN WAS ONLY SITE EVALUATED]) was “inactive; negative”.
`C#C[C@]1(O)CC[C@H]2[C@@H]3CCC4=C(CCC(=O)C4)[C@H]3CC[C@@]21C` was tested, and the carcinogen call (Species: MOUSE, Route: ORAL, Tumor Site: Type of Lesion: MAMMARY GLAND, PITUITARY GLAND) was “active; positive” and the carcinogen call (Species: RAT, Route: ORAL, Tumor Site: Type of Lesion: LIVER, MAMMARY GLAND, PITUITARY GLAND, Tumor Site: Type of Lesion: LIVER, MAMMARY GLAND, PITUITARY GLAND) was “active; positive”.
With `Cc1cc(=O)oc2c1cc(C)c1occ(C)c12` the carcinogen call (Species: MOUSE, Strain/Sex: C3H/HEN/FEMALE, Route: DERMAL, Dose: 0, 250 UG IN 70% ETHANOL 3/WK FOR 48 WK (STUDY DURATION: 68 WK)) was “inactive; negative”.
For `c1ccc2c(c1)cc1ccc3c4ccccc4cc4ccc2c1c43`, the carcinogen call (Species: MOUSE, Route: DERMAL, Tumor Site: Type of Lesion: INTEGUMENTARY SYSTEM (SKIN)) was “active; positive” and the carcinogen call (Species: MOUSE, Route: SUBCUTANEOUS, Tumor Site: Type of Lesion: INJECTION SITE) was “active; positive”.
With `O=C(O)C1C(C(=O)O)C2(Cl)C(Cl)=C(Cl)C1(Cl)C2(Cl)Cl` (stereo unspecified) the carcinogen call (Species: MOUSE, Strain/Sex: B6C3F1/FEMALE, Route: ORAL, Dose: 0, 620, 1250 PPM IN DIET FOR 103 WK (STUDY DURATION: 104 WK), Dose: 0, 620, 1250 PPM IN DIET FOR 103 WK (STUDY DURATION: 104 WK)) was “inactive; negative”, the carcinogen call (Species: MOUSE, Strain/Sex: B6C3F1/MALE, Route: ORAL, Dose: 0, 620, 1250 PPM IN DIET FOR 103 WK (STUDY DURATION: 104 WK), Dose: 0, 620, 1250 PPM IN DIET FOR 103 WK (STUDY DURATION: 104 WK), Tumor Site: Type of Lesion: LIVER: HEPATOCELLULAR ADENOMA, LIVER: HEPATOCELLULAR CARCINOMA, LIVER: HEPATOCELLULAR ADENOMA OR CARCINOMA, Tumor Site: Type of Lesion: LIVER: HEPATOCELLULAR ADENOMA, LIVER: HEPATOCELLULAR CARCINOMA, LIVER: HEPATOCELLULAR ADENOMA OR CARCINOMA) was “active; positive” and the carcinogen call (Species: RAT, Strain/Sex: F344/FEMALE, Route: ORAL, Dose: 0, 620, 1250 PPM IN DIET FOR 103 WK (STUDY DURATION: 104 WK), Dose: 0, 620, 1250 PPM IN DIET FOR 103 WK (STUDY DURATION: 104 WK), Tumor Site: Type of Lesion: LIVER: NEOPLASTIC NODULE, LIVER: HEPATOCELLULAR CARCINOMA, LIVER: NEOPLASTIC NODULE OR HEPATOCELLULAR CARCINOMA, UTERUS:, Tumor Site: Type of Lesion: LIVER: NEOPLASTIC NODULE, LIVER: HEPATOCELLULAR CARCINOMA, LIVER: NEOPLASTIC NODULE OR HEPATOCELLULAR CARCINOMA, UTERUS:) was “active; positive”. For the same molecule, the carcinogen call (Species: RAT, Strain/Sex: F344/MALE, Route: ORAL, Dose: 0, 620, 1250 PPM IN DIET FOR 103 WK (STUDY DURATION: 104 WK), Dose: 0, 620, 1250 PPM IN DIET FOR 103 WK (STUDY DURATION: 104 WK), Tumor Site: Type of Lesion: LUNG: ALVEOLAR/BRONCHIOLAR ADENOMA, LUNG: ALVEOLAR/BRONCHIOLAR ADENOMA OR CARCINOMA, LIVER: NEOPLASTIC NODULE, LIVER: NE, Tumor Site: Type of Lesion: LUNG: ALVEOLAR/BRONCHIOLAR ADENOMA, LUNG: ALVEOLAR/BRONCHIOLAR ADENOMA OR CARCINOMA, LIVER: NEOPLASTIC NODULE, LIVER: NE) was “active; positive”.
